Experimental data taken from article PMC8474115 (Journal of Medicinal Chemistry, 2021).
Where a name gives a salt, the structure may show the parent alone. Read-outs that look alike come from different tables or passages of the source.

Columns and labels:
5-HT2B receptors = molecular target: T1, 5-HT2B receptors (Homo sapiens, UniProt P41595); test: Agonist effect at 5-HT2B receptors (HTRF, Eurofins); assay type: cell-based; details: 1 μM
T1 construct: Eurofins, France
Experimental: Experiment was performed in duplicate at Eurofins, France.

Protein Tyr Kinase, LCK = molecular target: T2, Protein Tyr Kinase, LCK (Homo sapiens, UniProt P06239); test: Eurofins SafetyScreen panel; assay type: biochemical
T2 construct: Eurofins (contract screening, SafetyScreen panel) PP223

Cannabinoid CB1 = molecular target: T3, Cannabinoid CB1 (Homo sapiens, UniProt P21554); test: Eurofins SafetyScreen panel; assay type: binding
T3 construct: purchased Eurofins (Panlabs) SafetyScreen87 Panel

Cannabinoid CB2 = molecular target: T4, Cannabinoid CB2 (Homo sapiens, UniProt P34972); test: Eurofins SafetyScreen panel; assay type: binding
T4 construct: purchased Eurofins (Panlabs) SafetyScreen87 Panel

Dopamine D2S = molecular target: T5, Dopamine D2S (Homo sapiens, UniProt P14416); test: Eurofins SafetyScreen panel; assay type: binding
T5 construct: purchased Eurofins (Panlabs) SafetyScreen87 Panel

Endothelin ETA = molecular target: T6, Endothelin ETA (Homo sapiens, UniProt P25101); test: Eurofins SafetyScreen panel; assay type: binding
T6 construct: purchased Eurofins (Panlabs) SafetyScreen87 Panel

Muscarinic M3 = molecular target: T7, Muscarinic M3 (Homo sapiens, UniProt P20309); test: Eurofins SafetyScreen panel; assay type: binding
T7 construct: Eurofins (contract screening, SafetyScreen panel) PP223

Serotonin 5-HT2C = molecular target: T8, Serotonin 5-HT2C (Homo sapiens, UniProt P28335); test: Eurofins SafetyScreen panel; assay type: binding
T8 construct: Eurofins (contract assay)
T8 sequence (P28335 33-458): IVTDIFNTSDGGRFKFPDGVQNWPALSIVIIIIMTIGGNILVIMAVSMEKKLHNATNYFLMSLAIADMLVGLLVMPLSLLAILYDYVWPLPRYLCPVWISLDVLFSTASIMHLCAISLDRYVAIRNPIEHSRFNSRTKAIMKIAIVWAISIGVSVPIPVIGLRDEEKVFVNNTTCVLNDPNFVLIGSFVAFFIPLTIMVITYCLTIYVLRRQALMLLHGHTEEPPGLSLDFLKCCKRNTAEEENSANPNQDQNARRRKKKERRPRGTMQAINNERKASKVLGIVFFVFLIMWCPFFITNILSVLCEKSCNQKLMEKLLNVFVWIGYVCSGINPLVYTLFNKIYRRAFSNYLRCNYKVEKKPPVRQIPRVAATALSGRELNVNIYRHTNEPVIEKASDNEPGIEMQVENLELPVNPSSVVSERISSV

Sigma σ1 = molecular target: T9, Sigma σ1 (Homo sapiens, UniProt Q99720); test: Eurofins SafetyScreen panel; assay type: binding
T9 construct: Eurofins (contract assay) 278110

CYP1A2 = CYP1A2 (Homo sapiens, UniProt P05177); test: Cytochrome P450 inhibition (Eurofins)
Sequence of CYP1A2 (P05177 whole entry): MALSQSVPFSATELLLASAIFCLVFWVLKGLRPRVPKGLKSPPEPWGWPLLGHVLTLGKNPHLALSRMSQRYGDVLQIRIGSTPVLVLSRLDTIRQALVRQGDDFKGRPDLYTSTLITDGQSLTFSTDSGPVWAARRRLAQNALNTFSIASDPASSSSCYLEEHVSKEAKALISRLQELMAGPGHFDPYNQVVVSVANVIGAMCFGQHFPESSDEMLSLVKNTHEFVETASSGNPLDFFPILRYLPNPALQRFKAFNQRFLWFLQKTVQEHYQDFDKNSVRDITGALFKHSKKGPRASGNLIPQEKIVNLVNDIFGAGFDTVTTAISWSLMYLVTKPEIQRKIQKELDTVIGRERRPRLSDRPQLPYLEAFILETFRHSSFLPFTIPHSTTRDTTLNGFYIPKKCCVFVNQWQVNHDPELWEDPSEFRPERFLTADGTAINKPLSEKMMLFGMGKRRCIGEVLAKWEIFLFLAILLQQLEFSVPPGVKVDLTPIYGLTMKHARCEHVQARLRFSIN

T9 sequence (Q99720 whole entry): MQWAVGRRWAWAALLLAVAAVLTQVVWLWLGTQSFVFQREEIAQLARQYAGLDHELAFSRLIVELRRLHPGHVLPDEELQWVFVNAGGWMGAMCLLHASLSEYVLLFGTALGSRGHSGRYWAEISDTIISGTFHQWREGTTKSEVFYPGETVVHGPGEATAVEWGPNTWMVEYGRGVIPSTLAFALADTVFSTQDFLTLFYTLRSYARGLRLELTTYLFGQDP
T2 sequence (P06239 whole entry): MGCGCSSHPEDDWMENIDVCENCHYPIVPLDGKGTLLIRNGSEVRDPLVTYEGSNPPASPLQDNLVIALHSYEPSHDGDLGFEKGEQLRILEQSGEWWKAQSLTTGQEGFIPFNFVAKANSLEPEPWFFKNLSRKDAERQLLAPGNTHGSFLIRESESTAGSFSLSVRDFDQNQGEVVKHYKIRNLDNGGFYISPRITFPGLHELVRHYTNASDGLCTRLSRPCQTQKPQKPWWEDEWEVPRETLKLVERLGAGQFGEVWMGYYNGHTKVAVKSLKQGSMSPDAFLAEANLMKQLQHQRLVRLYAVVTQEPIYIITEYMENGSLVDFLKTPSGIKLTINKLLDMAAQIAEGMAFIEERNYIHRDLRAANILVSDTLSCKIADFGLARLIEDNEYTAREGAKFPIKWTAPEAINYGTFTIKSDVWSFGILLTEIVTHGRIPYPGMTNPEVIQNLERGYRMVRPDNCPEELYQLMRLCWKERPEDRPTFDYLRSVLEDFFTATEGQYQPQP
T5 sequence (P14416 1-414 isoform P14416-2): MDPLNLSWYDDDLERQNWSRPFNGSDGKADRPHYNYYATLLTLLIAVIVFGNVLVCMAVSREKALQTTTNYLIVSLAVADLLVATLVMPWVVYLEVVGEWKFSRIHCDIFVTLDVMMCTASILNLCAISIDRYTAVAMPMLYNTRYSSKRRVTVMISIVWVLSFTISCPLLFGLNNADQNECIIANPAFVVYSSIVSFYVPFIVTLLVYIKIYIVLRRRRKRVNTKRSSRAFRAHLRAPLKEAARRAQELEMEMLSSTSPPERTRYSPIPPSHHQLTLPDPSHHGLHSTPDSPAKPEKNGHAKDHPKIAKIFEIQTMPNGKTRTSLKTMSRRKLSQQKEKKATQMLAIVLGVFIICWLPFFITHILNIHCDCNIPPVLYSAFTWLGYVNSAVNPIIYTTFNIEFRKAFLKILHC
T3 sequence (P21554 whole entry): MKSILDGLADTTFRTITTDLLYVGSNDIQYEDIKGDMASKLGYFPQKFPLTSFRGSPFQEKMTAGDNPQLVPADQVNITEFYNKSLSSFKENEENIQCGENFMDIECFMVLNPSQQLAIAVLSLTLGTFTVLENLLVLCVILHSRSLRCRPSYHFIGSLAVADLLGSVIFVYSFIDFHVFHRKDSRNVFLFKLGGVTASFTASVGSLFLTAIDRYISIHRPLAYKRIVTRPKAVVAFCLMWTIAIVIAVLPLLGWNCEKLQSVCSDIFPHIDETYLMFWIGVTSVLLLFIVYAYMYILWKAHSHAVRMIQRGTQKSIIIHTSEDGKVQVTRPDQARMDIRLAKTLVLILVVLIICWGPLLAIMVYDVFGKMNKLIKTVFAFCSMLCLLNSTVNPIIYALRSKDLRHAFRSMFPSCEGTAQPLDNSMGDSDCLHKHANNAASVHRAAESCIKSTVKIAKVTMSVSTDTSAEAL
T7 sequence (P20309 whole entry): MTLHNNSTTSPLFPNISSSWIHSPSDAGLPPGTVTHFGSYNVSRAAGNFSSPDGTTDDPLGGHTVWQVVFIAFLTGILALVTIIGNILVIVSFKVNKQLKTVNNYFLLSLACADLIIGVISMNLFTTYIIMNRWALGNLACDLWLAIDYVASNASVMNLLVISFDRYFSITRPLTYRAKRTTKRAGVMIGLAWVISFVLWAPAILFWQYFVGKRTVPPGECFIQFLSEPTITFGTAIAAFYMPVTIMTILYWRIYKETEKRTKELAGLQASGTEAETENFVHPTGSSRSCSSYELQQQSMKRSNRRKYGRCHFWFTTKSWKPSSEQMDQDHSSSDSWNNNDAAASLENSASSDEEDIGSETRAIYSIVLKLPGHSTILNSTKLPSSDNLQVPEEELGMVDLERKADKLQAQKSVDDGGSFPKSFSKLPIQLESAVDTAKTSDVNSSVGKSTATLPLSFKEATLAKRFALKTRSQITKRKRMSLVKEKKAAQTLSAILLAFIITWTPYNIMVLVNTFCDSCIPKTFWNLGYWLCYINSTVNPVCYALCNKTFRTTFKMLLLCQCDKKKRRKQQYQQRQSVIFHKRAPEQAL
T6 sequence (P25101 21-427): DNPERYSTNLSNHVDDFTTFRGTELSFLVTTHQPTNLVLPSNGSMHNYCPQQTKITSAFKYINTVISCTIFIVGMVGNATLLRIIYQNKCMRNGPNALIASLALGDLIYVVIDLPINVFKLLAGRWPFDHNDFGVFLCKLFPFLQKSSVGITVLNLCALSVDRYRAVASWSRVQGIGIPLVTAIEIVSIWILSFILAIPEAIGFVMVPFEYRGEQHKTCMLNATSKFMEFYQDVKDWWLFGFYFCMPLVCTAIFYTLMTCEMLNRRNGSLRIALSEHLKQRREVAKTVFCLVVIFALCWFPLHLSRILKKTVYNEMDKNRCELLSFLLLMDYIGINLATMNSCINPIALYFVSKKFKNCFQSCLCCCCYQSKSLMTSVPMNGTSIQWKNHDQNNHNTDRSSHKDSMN
T4 sequence (P34972 whole entry, looked up): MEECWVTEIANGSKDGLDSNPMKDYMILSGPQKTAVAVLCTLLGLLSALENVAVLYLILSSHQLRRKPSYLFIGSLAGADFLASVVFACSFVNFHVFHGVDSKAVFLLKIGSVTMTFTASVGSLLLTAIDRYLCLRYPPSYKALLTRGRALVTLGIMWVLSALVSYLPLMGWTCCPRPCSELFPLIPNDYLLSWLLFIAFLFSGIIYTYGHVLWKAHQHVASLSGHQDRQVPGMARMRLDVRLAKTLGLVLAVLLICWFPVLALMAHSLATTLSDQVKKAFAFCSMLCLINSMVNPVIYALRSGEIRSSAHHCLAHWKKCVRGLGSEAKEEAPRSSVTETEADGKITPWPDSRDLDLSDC
T1 sequence (P41595 whole entry): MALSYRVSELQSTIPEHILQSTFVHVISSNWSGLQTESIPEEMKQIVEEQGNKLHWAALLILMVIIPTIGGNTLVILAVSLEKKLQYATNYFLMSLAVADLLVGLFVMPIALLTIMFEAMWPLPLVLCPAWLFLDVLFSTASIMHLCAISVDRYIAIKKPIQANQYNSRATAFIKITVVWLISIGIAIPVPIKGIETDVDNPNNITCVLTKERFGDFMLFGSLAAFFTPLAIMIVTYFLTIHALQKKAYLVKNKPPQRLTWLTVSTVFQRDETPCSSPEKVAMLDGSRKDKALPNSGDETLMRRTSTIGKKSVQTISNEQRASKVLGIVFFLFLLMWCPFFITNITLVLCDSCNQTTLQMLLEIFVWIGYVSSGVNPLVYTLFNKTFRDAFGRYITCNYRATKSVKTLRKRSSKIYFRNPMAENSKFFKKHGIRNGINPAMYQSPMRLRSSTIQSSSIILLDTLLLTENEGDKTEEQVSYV

## O=S(=O)(c1cccc(F)c1)n1ccc2c(N3CCNCC3)nc3ccccc3c21 [FPPQ, 1-[(3-Fluorophenyl)sulfonyl]-4-(piperazin-1-yl)-1H-pyrrolo[3,2-c]quinoline dihydrochloride]
5-HT2B receptors
  agonistic effect at 5-HT2BR: 3.6 % inhibition
Protein Tyr Kinase, LCK
  inhibition at 10 µM: 6%
Cannabinoid CB1
  inhibition at 10 µM: 35%
Cannabinoid CB2
  inhibition at 10 µM: -21%
Dopamine D2S
  inhibition at 10 µM: 46%
Endothelin ETA
  inhibition at 10 µM: 3%
Muscarinic M3
  inhibition at 10 µM: 43%
Serotonin 5-HT2C
  IC50: 1.58 µM
  Ki: 0.83 µM
Serotonin 5-HT2C; read-out: %inh, 10 nM, additional batch
  inhibition at 0.01 µM: -5%
Serotonin 5-HT2C; read-out: %inh, 0.1 μM
  inhibition at 0.1 µM: -6%
Serotonin 5-HT2C; read-out: %inh, 1 μM
  inhibition at 1 µM: 32%
Serotonin 5-HT2C; read-out: %inh, 10 μM
  inhibition at 10 µM: 94%
Serotonin 5-HT2C; read-out: %inh, 10 μM, additional batch
  inhibition at 10 µM: 93%
Sigma σ1
  IC50: 8.33 µM
  Ki: 3.5 µM
Sigma σ1; read-out: %inh
  inhibition at 0.1 µM: 7%
  inhibition at 1 µM: 18%
  inhibition at 10 µM: 51%
  inhibition at 100 µM: 89%
CYP1A2
  IC50: 12 µM
